The target of the test is T1, BRM (Homo sapiens, UniProt P51531).
T1 construct: In-Cell Western Screen of BRM Degradation in SW1573 Cells; endogenous in cells; host or cells: SW1573
In words: In-cell Western screen of BRM degradation in SW1573 cells (Dmax and DC50). The class given is cell-based. The method in brief: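 Near-infrared imaging on a LI-COR Odyssey (800 and 680 nm channels) quantifies BRM remaining in fixed SW1573 cells. Cells are dosed for 18-20 h at 0.1% final DMSO, and degradation is expressed as Dmax and DC50.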

Where [1] appears, read: target protein degradation, read-out: BRM DC50.
The mark [2] stands for this setting: BRM degradation, SW1573 cells, read-out: DC50.
[3] abbreviates: BRM degradation, SW1573 cells, when tested at the top concentration of between 0.3 and 10 μM, read-out: Dmax (%) (% degraded).
Setting [4] is: BRM degradation, SW1573 cells, read-out: Dmax (% degraded).

SMILES strings stand for the structures. Where two headings read alike, the source gives them in different places. Bounds are passed on as bounds.

The values below come from patent US12539292B2, “BRM targeting compounds and associated methods of use” (Arvinas Operations, Inc., priority 2018, dated 2026).

The DC50 is the midpoint of the concentration-degradation curve. For orientation: Dmax means the greatest extent of degradation seen.

T1 sequence (P51531 whole entry): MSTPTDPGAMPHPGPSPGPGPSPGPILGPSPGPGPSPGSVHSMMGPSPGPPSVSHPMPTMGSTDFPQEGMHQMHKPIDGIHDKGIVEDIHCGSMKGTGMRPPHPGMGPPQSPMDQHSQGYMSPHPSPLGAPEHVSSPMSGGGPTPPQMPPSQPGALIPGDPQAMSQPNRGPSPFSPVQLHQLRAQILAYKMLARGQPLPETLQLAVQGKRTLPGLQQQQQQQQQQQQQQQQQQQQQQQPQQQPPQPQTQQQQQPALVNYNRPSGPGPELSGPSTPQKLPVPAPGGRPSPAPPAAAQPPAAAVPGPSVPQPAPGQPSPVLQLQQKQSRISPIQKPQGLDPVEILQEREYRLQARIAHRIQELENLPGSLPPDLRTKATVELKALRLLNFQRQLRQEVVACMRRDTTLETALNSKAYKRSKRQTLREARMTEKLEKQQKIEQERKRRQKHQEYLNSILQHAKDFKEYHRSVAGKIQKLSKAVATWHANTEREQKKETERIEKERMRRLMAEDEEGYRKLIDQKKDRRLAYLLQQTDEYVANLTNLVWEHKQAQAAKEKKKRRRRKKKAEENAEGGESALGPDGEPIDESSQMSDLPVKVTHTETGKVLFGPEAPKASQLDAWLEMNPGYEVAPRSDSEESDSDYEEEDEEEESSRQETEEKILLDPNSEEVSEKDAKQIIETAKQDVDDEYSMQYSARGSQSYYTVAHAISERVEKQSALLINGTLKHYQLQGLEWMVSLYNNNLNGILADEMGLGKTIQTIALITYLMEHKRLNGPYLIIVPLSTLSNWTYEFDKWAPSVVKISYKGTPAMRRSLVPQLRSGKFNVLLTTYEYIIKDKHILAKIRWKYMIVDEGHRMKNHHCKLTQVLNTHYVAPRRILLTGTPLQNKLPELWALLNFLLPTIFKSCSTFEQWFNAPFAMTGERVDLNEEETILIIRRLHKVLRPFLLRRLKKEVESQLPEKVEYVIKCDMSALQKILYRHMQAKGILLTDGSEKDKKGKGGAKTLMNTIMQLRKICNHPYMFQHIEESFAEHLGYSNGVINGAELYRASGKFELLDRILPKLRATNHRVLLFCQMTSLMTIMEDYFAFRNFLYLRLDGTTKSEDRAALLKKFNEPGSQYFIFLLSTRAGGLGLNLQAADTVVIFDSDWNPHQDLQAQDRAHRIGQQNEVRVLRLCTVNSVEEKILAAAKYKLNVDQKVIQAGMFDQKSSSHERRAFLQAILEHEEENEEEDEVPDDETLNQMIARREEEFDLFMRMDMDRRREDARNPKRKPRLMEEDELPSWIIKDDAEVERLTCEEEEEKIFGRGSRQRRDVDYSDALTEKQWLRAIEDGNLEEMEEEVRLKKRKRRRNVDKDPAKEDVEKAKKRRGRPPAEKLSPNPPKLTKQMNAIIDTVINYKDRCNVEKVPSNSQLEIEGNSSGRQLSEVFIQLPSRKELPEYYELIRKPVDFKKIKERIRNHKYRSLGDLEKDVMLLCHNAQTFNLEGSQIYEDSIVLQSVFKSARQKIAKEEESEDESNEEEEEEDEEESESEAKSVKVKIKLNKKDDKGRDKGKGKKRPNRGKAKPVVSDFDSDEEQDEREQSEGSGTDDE

For the compound `Cc1ncsc1-c1ccc([C@H](C)NC(=O)[C@@H]2C[C@@H](O)CN2C(=O)[C@H](c2cc(OCC#CC34CC(CNC5CC(Oc6cc(N7C8CC[C@@H]7CN(c7cc(-c9ccccc9O)nnc7N)C8)ccn6)C5)(C3)C4)no2)C(C)C)cc1` (stereo partly drawn) [compound 381, (2S,4R)-1-((2S)-2-(3-((3-(3-((((1r,3S)-3-((4-(3-(3-amino-6-(2-hydroxyphenyl)pyridazin-4-yl)-3,8-diazabicyclo[3.2.1]octan-8-yl)pyridin-2-yl)oxy)cyclobutyl)amino)methyl)bicyclo[1.1.1]pentan-1-yl)prop-2-yn-1-yl)oxy)isoxazol-5-yl)-3-methylbutanoyl)-4-hydroxy-N-((S)-1-(4-(4-methylthiazol-5-yl)phenyl)ethyl)pyrrolidine-2-carboxamide], for the setting “% degraded, when tested at the top concentration of between 0.3 and 10 μM”, the “BRM Dmax (%)” value is reported as “A (A > 75)”. For the same compound, the half-maximal degradation concentration (DC50) under setting [1] was in the range of 10 to 30 nM.
On to `Cc1ncsc1-c1ccc([C@H](C)NC(=O)[C@@H]2C[C@@H](O)CN2C(=O)[C@@H](c2cc(OCCN3CCC(O[C@H]4C[C@H](OCCN5CCOC6(CCN(c7cc(-c8ccccc8O)nnc7N)CC6)C5)C4)CC3)no2)C(C)C)cc1` [compound 359, (2S,4R)-1-((R)-2-(3-(2-(4-((1r,3R)-3-(2-(9-(3-amino-6-(2-hydroxyphenyl)pyridazin-4-yl)-1-oxa-4,9-diazaspiro[5.5]undecan-4-yl)ethoxy)cyclobutoxy)piperidin-1-yl)cthoxy)isoxazol-5-yl)-3-methylbutanoyl)-4-hydroxy-N-((S)-1-(4-(4-methylthiazol-5-yl)phenyl)ethyl)pyrrolidine-2-carboxamide], for which the Dmax (SW1573, % degraded, when tested at the top concentration of between 0.3 and 10 μM, read-out: BRM Dmax (%)) was above 75%. Besides, the DC50 under setting [1] was below 2.5 nM.
As to `Cc1ncsc1-c1ccc([C@H](C)NC(=O)[C@@H]2C[C@@H](O)CN2C(=O)[C@H](c2cc(N3CCN(CC4CCN(C[C@H]5C[C@H](Oc6cc(N7C8CCC7CN(c7cc(-c9ccccc9O)nnc7N)C8)ccn6)C5)CC4)CC3)no2)C(C)C)cn1` [compound 426, (2S,4R)-1-((2S)-2-(3-(4-((1-(((11,3r)-3-((4-(3-(3-amino-6-(2-hydroxyphenyl)pyridazin-4-yl)-3,8-diazabicyclo[3.2.1]octan-8-yl)pyridin-2-yl)oxy)cyclobutyl)methyl)piperidin-4-yl)methyl)piperazin-1-yl)isoxazol-5-yl)-3-methylbutanoyl)-4-hydroxy-N-((S)-1-(6-(4-methylthiazol-5-yl)pyridin-3-yl)ethyl)pyrrolidine-2-carboxamide], the DC50 (degradation of BRM, read-out: BRM DC50) was above 30 nM.
As for `Cc1ncsc1-c1ccc([C@H](C)NC(=O)[C@@H]2C[C@@H](O)CN2C(=O)[C@H](c2cc(N3CCC(CC4CCN(C[C@H]5C[C@H](Oc6cc(N7C8CCC7CN(c7cc(-c9ccccc9O)nnc7N)C8)ccn6)C5)CC4)CC3)no2)C(C)C)cc1` [compound 472, (2S,4R)-1-((2S)-2-(3-(4-((1-(((1r,3r)-3-((4-(3-(3-amino-6-(2-hydroxyphenyl)pyridazin-4-yl)-3,8-diazabicyclo[3.2.1]octan-8-yl)pyridin-2-yl)oxy)cyclobutyl)methyl)piperidin-4-yl)methyl)piperidin-1-yl)isoxazol-5-yl)-3-methylbutanoyl)-4-hydroxy-N-((S)-1-(4-(4-methylthiazol-5-yl)phenyl)ethyl)pyrrolidine-2-carboxamide], under setting [1], the DC50 was above 30 nM.
Consider `Cc1ncsc1-c1ccc([C@H](C)NC(=O)[C@@H]2C[C@@H](O)CN2C(=O)[C@@H](c2cc(OCCOCCOCCCCN3CC4(C3)CN(c3cc(-c5ccccc5O)nnc3N)C4)no2)C(C)C)cc1` [compound 66, (2S,4R)-1-((R)-2-(3-(2-(2-(4-(6-(3-amino-6-(2-hydroxyphenyl)pyridazin-4-yl)-2,6-diazaspiro[3.3]heptan-2-yl)butoxy)ethoxy)ethoxy)isoxazol-5-yl)-3-methylbutanoyl)-4-hydroxy-N-((S)-1-(4-(4-methylthiazol-5-yl)phenyl)ethyl)pyrrolidine-2-carboxamide], for which the DC50 under setting [2] is above 30 nM. Besides, the Dmax under setting [3] is above 75%.
Consider `Cc1ncsc1-c1ccc([C@H](C)NC(=O)[C@@H]2C[C@@H](O)CN2C(=O)[C@@H](c2cc(OCCN3CC[C@@H](O[C@H]4C[C@H](Oc5cc(N6C7CCC6CN(c6cc(-c8ccccc8O)nnc6N)C7)ccn5)C4)C[C@H]3C)no2)C(C)C)cc1` (single isomer, unassigned) [compound 634], for which the DC50 under setting [2] is below 2.5 nM. Also, the Dmax under setting [4] was above 75%.
The matching figures for `Cc1ncsc1-c1ccc([C@H](CCO)NC(=O)[C@@H]2C[C@@H](O)CN2C(=O)[C@@H](c2cc(N3CCC(CN4CCC(O[C@H]5C[C@H](Oc6cc(N7C8CCC7CN(c7cc(-c9ccccc9O)nnc7N)C8)ccn6)C5)CC4)CC3)no2)C(C)C)cc1` [compound 661, (2S,4R)-1-((2R)-2-(3-(4-((4-((1r,3r)-3-((4-(3-(3-amino-6-(2-hydroxyphenyl)pyridazin-4-yl)-3,8-diazabicyclo[3.2.1]octan-8-yl)pyridin-2-yl)oxy)cyclobutoxy)piperidin-1-yl)methyl)piperidin-1-yl)isoxazol-5-yl)-3-methylbutanoyl)-4-hydroxy-N-((S)-3-hydroxy-1-(4-(4-methylthiazol-5-yl)phenyl)propyl)pyrrolidine-2-carboxamide]: below 2.5 nM and above 75%.
As for `Cc1ncsc1-c1ccc([C@H](C)NC(=O)[C@@H]2C[C@@H](O)CN2C(=O)[C@H](c2cc(OCCOc3ccc(C(C)n4cc(-c5cc(-c6ccccc6O)nnc5N)cn4)cc3)no2)C(C)C)cc1` (stereo partly drawn) [compound 156, (2S,4R)-1-((2S)-2-(3-(2-(4-(1-(4-(3-amino-6-(2-hydroxyphenyl)pyridazin-4-yl)-1H-pyrazol-1-yl)ethyl)phenoxy)ethoxy)isoxazol-5-yl)-3-methylbutanoyl)-4-hydroxy-N-((S)-1-(4-(4-methylthiazol-5-yl)phenyl)ethyl)pyrrolidine-2-carboxamide], under setting [2], the DC50 is above 30 nM. For the same compound, where the note is “BRM degradation, SW1573 cells, tested at the top concentration of between 0.3 and 10 μM, read-out: Dmax (%) (% degraded)”, the Dmax was above 75%.
As to `Cc1cnc(C)n1-c1ccc([C@H](C)NC(=O)[C@@H]2C[C@@H](O)CN2C(=O)[C@H](c2cc(OCCN3CCC(O[C@H]4C[C@H](Oc5cc(N6C7CCC6CN(c6cc(-c8ccccc8O)nnc6N)C7)ccn5)C4)CC3)no2)C(C)C)cc1` [compound 375, (2S,4R)-1-((2S)-2-(3-(2-(4-((1r,3S)-3-((4-(3-(3-amino-6-(2-hydroxyphenyl)pyridazin-4-yl)-3,8-diazabicyclo[3.2.1]octan-8-yl)pyridin-2-yl)oxy)cyclobutoxy)piperidin-1-yl)ethoxy)isoxazol-5-yl)-3-methylbutanoyl)-N-((S)-1-(4-(2,5-dimethyl-1H-imidazol-1-yl)phenyl)ethyl)-4-hydroxypyrrolidine-2-carboxamide], the DC50 under setting [1] was above 30 nM.
Regarding `Cc1ncsc1-c1ccc([C@H](C)NC(=O)[C@@H]2C[C@@H](O)CN2C(=O)[C@@H](c2cc(OCCC3CCN(C[C@H]4C[C@H](N5CCC(C(C)n6cc(-c7cc(-c8ccccc8O)nnc7N)cn6)CC5)C4)CC3)no2)C(C)C)cc1` (stereo partly drawn) [compound 599, (2S,4R)-1-((2R)-2-(3-(2-(1-(((1r,3R)-3-(4-(1-(4-(3-amino-6-(2-hydroxyphenyl)pyridazin-4-yl)-1H-pyrazol-1-yl)ethyl)piperidin-1-yl)cyclobutyl)methyl)piperidin-4-yl)ethoxy)isoxazol-5-yl)-3-methylbutanoyl)-4-hydroxy-N-((S)-1-(4-(4-methylthiazol-5-yl)phenyl)ethyl)pyrrolidine-2-carboxamide], where the note is “BRM degradation, SW1573 cells, Table 2D, read-out: **Dmax (%) (% degraded)”, the Dmax is above 75%. Further, the DC50 (BRM degradation, SW1573 cells, Table 2D, read-out: *DC50) was below 2.5 nM.
Consider `Cc1ncsc1-c1ccc([C@H](C)NC(=O)[C@@H]2C[C@@H](O)CN2C(=O)[C@@H](c2cc(OCCN3CC[C@H](O[C@H]4C[C@H](Oc5cc(N6C7CCC6CN(c6cc(-c8ccccc8O)nnc6N)C7)ccn5)C4)C[C@H]3C)no2)C(C)C)cc1` [compound 628, (2S,4R)-1-((2R)-2-(3-(2-((2R,4S)-4-((1r,3S)-3-((4-(3-(3-amino-6-(2-hydroxyphenyl)pyridazin-4-yl)-3,8-diazabicyclo[3.2.1]octan-8-yl)pyridin-2-yl)oxy)cyclobutoxy)-2-methylpiperidin-1-yl)ethoxy)isoxazol-5-yl)-3-methylbutanoyl)-4-hydroxy-N-((S)-1-(4-(4-methylthiazol-5-yl)phenyl)ethyl)pyrrolidine-2-carboxamide], for which the DC50 under setting [2] is below 2.5 nM. The Dmax under setting [4] is above 75%.
As to `Cc1ncsc1-c1ccc(CNC(=O)[C@@H]2C[C@@H](O)CN2C(=O)[C@@H](NC(=O)COCCOCCN2CCN(CCCc3cc(N4C5CCC4CN(c4cc(-c6ccccc6O)nnc4N)C5)ccn3)CC2)C(C)(C)C)cc1` [compound 40, (2S,4R)-1-[(2S)-2-[2-[2-(2-[4-[3-(4-[3-[3-amino-6-(2-hydroxyphenyl)pyridazin-4-yl]-3,8-diazabicyclo[3.2.1]octan-8-yl]pyridin-2-yl)propyl]piperazin-1-yl]ethoxy)ethoxy]acetamido]-3,3-dimethylbutanoyl]-4-hydroxy-N-[[4-(4-methyl-1,3-thiazol-5-yl)phenyl]methyl]pyrrolidine-2-carboxamide], the DC50 under setting [2] was above 30 nM. In addition, under setting [3], the Dmax is below 50%.
